The nature of the test: Compound was evaluated for the binding affinity at 5- HT1A receptor.

This passage reports Ki results from BindingDB's records for doi:10.1021/jm00013a009 (Sandoz Pharma, 1995).

The structures appear in SMILES notation.

Broadly, the Ki is the equilibrium dissociation constant of an inhibitor or competing ligand from its target. High values mean weaker binding, low ones tighter binding. Take `N=C(N)NN=Cc1c[nH]c2ccc(O)cc12` [(2E)-2-[(5-hydroxy-1H-indol-3-yl)methylene]hydrazinecarboximidamide]: the affinity corresponds to a Ki of 63 nM.
